Test results published in ChEMBL document CHEMBL1145697, “Halishigamides AD, New Cytotoxic Oxazole-Containing Metabolites from Okinawan Sponge Halichondria sp” (J Nat Prod, 1997).
Values after ≈ are worked out from the molar mass of the structure shown.

Tests used:
[1] = test system: Trichophyton mentagrophytes; experiment: Antifungal activity against Trichophyton mentagrophytes; format: functional
KB = experiment: Cytotoxicity against human KB cells; format: functional, cell-based
L1210 = experiment: Cytotoxicity against mouse L1210 cells; format: functional, cell-based

SMILES | MIC [1] | IC50 (KB) | IC50 (L1210)
CO[C@@H](C[C@@H]1OC(=O)C[C@@H](O)C[C@H](N)CC(=O)[C@H](C)[C@H](OC)c2coc(n2)-c2coc(n2)-c2coc(n2)/C=C/CC[C@H]1C)[C@@H](C)CCC(=O)[C@H](C)[C@@H](C/C=C/N(C)C=O)OC [HALISHIGAMIDE A] | 0.1 µg/mL (≈ 0.117 µM) | 0.012 µg/mL (≈ 0.0141 µM) | 0.0036 µg/mL (≈ 0.00422 µM)
COC(CC1OC(=O)CC(O)C/C=C/C(=O)C(C)C(OC)C(=O)NC(=O)c2coc(n2)-c2coc(n2)/C=C/CCC1C)C(C)CCC(=O)C(C)C(C/C=C/N(C)C=O)OC (configuration not stated) [HALISHIGAMIDE B] | 25 µg/mL (≈ 29.7 µM) | 7.5 µg/mL (≈ 8.92 µM) | 4.4 µg/mL (≈ 5.23 µM)
COC(=O)c1coc(-c2coc(/C=C/CCC(C)C(CC(OC)C(C)CCC(=O)C(C)C(C/C=C/N(C)C=O)OC)OC(=O)CC(O)C/C=C/C(=O)C(C)C(OC)C(N)=O)n2)n1 (configuration not stated) [HALISHIGAMIDE C] | 25 µg/mL (≈ 28.6 µM) | 6.5 µg/mL (≈ 7.45 µM) | 5.2 µg/mL (≈ 5.96 µM)
COC(=O)c1coc(/C=C/CCC(C)C(CC(OC)C(C)CCC(=O)C(C)C(C/C=C/N(C)C=O)OC)OC(=O)CC(O)C/C=C/C(=O)C(C)C(OC)c2coc(C(N)=O)n2)n1 (configuration not stated) [HALISHIGAMIDE D] | 6.5 µg/mL (≈ 7.45 µM) | 1.8 µg/mL (≈ 2.06 µM) | 1.1 µg/mL (≈ 1.26 µM)
